According to patent US9561228B2 (Celgene Avilomics Research, Inc., priority 2013, dated 2017):

What was measured:
[1] = tested on: ERK1/2 phosphorylation of p90RSK in A375 cells; assay: Detection of total and phosphor-RSK by MSD ELISA (A375); type: cell-based; conditions: Homo sapiens, A-375, read-out: ERK1/ERK2 PRSK A375 EC50
In short: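 Electrochemiluminescent MSD ELISA: common RSK capture antibody, with pRSK Ser380 or total RSK detection antibodies plus SulfoTag secondaries. Samples were lysates of A375 cells exposed to compound for 2 h at 37° C after overnight culture in 0.1% FBS DMEM.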

MEK1 activated ERK1 = biological target: T1, MEK1 activated ERK1 (Homo sapiens, UniProt P27361); assay: Omnia continuous-read kinase assay for potency against MEK1 activated ERK1; type: biochemical; conditions: ATP at KM, WT
T1 construct: purchased Millipore (Billerica, Mass.) 14-439-K
T1 sequence (P27361 whole entry): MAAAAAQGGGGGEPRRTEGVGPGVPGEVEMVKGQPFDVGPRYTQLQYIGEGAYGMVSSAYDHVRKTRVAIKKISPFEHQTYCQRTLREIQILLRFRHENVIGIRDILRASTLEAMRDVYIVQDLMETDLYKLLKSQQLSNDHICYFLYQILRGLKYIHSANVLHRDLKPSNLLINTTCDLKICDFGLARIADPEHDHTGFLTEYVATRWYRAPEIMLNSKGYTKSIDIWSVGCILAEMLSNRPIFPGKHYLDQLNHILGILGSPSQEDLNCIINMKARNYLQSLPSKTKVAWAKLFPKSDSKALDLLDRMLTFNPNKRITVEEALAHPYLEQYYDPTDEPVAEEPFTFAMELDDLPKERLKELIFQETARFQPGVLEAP
In short: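 Apparent IC50 came from initial reaction slopes (RFU vs time) plotted against log inhibitor with a variable-slope fit. Reactions were started with ERK1 (4 nM final) added to 50 μM ATP, roughly at its appKM, and 10 μM Sox-conjugated ST17 peptide in 20 mM Tris pH 7.5, 5 mM MgCl2. Fluorescence was monitored every 71 seconds.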

Erk1 = biological target: T2, Erk1 (Homo sapiens, UniProt P27361); assay: Protein Mass Modification Assay (intact protein MALDI, 60 min, 10-fold excess of compound); type: binding
T2 construct: purchased Millipore 14-439
T2 sequence (P27361 whole entry): as above
In short: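 Percent covalent modification comes from the intact-protein MALDI centroid mass shift, treated versus control, divided by compound MW. Before analysis, human Erk1 was exposed to compound at 10-fold excess over protein for 60 min at room temperature.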

Compound	EC50 [1] [nM]	IC50 (MEK1 activated ERK1) [nM]	ERK1 Mass Mod (%) (Erk1)
C=CC(=O)Nc1cc(CN2CCN(C(=O)c3cccnc3)CC2)ccc1Nc1nc(Nc2cc(OC)ncc2C)ncc1C(F)(F)F [Compound I-389, N-(2-((2-((2-methoxy-5-methylpyridin-4-yl)amino)-5-(trifluoromethyl)pyrimidin-4-yl)amino)-5-((4-nicotinoylpiperazin-1-yl)methyl)phenyl)acrylamide]	< 100	< 100	E (a mass modification of ≧70%)
C=CC(=O)Nc1cc(CN2CCN(C(=O)c3cnccn3)CC2)ccc1Nc1nc(Nc2cc(OC)ncc2C)ncc1C(F)(F)F [Compound I-390, N-(2-((2-((2-methoxy-5-methylpyridin-4-yl)amino)-5-(trifluoromethyl)pyrimidin-4-yl)amino)-5-((4-(pyrazine-2-carbonyl)piperazin-1-yl)methyl)phenyl)acrylamide]	< 100	< 100	E (a mass modification of ≧70%)
C=CC(=O)Nc1cc(CN2CCN(C(=O)c3cccnc3)CC2)ccc1Nc1nc(Nc2nc(OC)ncc2C)ncc1C(F)(F)F [Compound I-392, N-(2-((2-((2-methoxy-5-methylpyrimidin-4-yl)amino)-5-(trifluoromethyl)pyrimidin-4-yl)amino)-5-((4-nicotinoylpiperazin-1-yl)methyl)phenyl)acrylamide]	> 1000	101 to 500	E (a mass modification of ≧70%)
C=CC(=O)Nc1cc(CN2CCN(C(=O)c3cnccn3)CC2)ccc1Nc1nc(Nc2nc(OC)ncc2C)ncc1C(F)(F)F [Compound I-393, N-(2-((2-((2-methoxy-5-methylpyrimidin-4-yl)amino)-5-(trifluoromethyl)pyrimidin-4-yl)amino)-5-((4-(pyrazine-2-carbonyl)piperazin-1-yl)methyl)phenyl)acrylamide]	> 1000	501 to 999	E (a mass modification of ≧70%)
C=CC(=O)Nc1cc(CN2CCN(C)CC2)ccc1Nc1nc(Nc2nc(OC)ncc2C)ncc1C(F)(F)F [Compound I-394, N-(2-((2-((2-methoxy-5-methylpyrimidin-4-yl)amino)-5-(trifluoromethyl)pyrimidin-4-yl)amino)-5-((4-methylpiperazin-1-yl)methyl)phenyl)acrylamide]	> 1000	101 to 500	E (a mass modification of ≧70%)
C=CC(=O)Nc1ccc(OCC(N)=O)cc1Nc1nc(NC2CCOCC2)ncc1C(F)(F)F [Compound I-395, N-(4-(2-amino-2-oxoethoxy)-2-((2-((tetrahydro-2H-pyran-4-yl)amino)-5-(trifluoromethyl)pyrimidin-4-yl)amino)phenyl)acrylamide]	> 1000	> 1000	E (a mass modification of ≧70%)
C=CC(=O)Nc1cc(OCCN)ccc1Nc1nc(Nc2cc(OC)ncc2C)ncc1C(F)(F)F [Compound I-396, N-(5-(2-aminoethoxy)-2-((2-((2-methoxy-5-methylpyridin-4-yl)amino)-5-(trifluoromethyl)pyrimidin-4-yl)amino)phenyl)acrylamide]	101 to 500	< 100	E (a mass modification of ≧70%)
C=CC(=O)Nc1cc(C)c(C#N)cc1Nc1nc(NC2CCOCC2)ncc1C(F)(F)F [Compound I-397, N-(4-cyano-5-methyl-2-((2-((tetrahydro-2H-pyran-4-yl)amino)-5-(trifluoromethyl)pyrimidin-4-yl)amino)phenyl)acrylamide]	501 to 999	> 1000	F (a mass modification of 31-69%)
C=CC(=O)Nc1cc(OCC(N)=O)ccc1Nc1nc(Nc2cc(OC)ncc2C)ncc1C(F)(F)F [Compound I-398, N-(5-(2-amino-2-oxoethoxy)-2-((2-((2-methoxy-5-methylpyridin-4-yl)amino)-5-(trifluoromethyl)pyrimidin-4-yl)amino)phenyl)acrylamide]	< 100	< 100	E (a mass modification of ≧70%)
C=CC(=O)Nc1cc(CN2CCOCC2)ccc1Nc1nc(Nc2cc(OC)ncc2C)ncc1C(F)(F)F [Compound I-399, N-(2-((2-((2-methoxy-5-methylpyridin-4-yl)amino)-5-(trifluoromethyl)pyrimidin-4-yl)amino)-5-(morpholinomethyl)phenyl)acrylamide]	501 to 999	101 to 500	E (a mass modification of ≧70%)
C=CC(=O)Nc1cc(CCC(N)=O)ccc1Nc1nc(Nc2cc(OC)ncc2C)ncc1C(F)(F)F [Compound I-400, N-(5-(3-amino-3-oxopropyl)-2-((2-((2-methoxy-5-methylpyridin-4-yl)amino)-5-(trifluoromethyl)pyrimidin-4-yl)amino)phenyl)acrylamide]	< 100	< 100	E (a mass modification of ≧70%)
C=CC(=O)Nc1cc(C(=O)N2CCN(S(C)(=O)=O)CC2)ccc1Nc1nc(Nc2cc(OC)ncc2C)ncc1C(F)(F)F [Compound I-401, N-(2-((2-((2-methoxy-5-methylpyridin-4-yl)amino)-5-(trifluoromethyl)pyrimidin-4-yl)amino)-5-(4-(methylsulfonyl)piperazine-1-carbonyl)phenyl)acrylamide]	101 to 500	101 to 500	E (a mass modification of ≧70%)
C=CC(=O)Nc1cc(C)ccc1Nc1nc(Nc2cc(OC)ncc2C(F)F)ncc1C(F)(F)F [Compound I-431, N-(2-((2-((5-(difluoromethyl)-2-methoxypyridin-4-yl)amino)-5-(trifluoromethyl)pyrimidin-4-yl)amino)-5-methylphenyl)acrylamide]	101 to 500	501 to 999	E (a mass modification of ≧70%)
